Measurements reported in PubChem BioAssay (NCI).
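Cells were grown in 96-well plates and exposed to each compound for 48 hours at five concentrations; endpoints were interpolated linearly between bracketing concentrations, or set to the highest concentration if not reached. The concentration for full growth arrest is given as TGI.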

What was measured:
Test in all cases: DTP human tumour cell line panel, 48 h
SNB-78 CNS = system: SNB-78 CNS
RXF-631 renal = system: RXF-631 renal
LXFL 529 NSCLC = system: LXFL 529 NSCLC
DMS 114 small cell lung = system: DMS 114 small cell lung
MDA-N = system: MDA-N
NCI/ADR-RES ovarian = system: NCI/ADR-RES ovarian
MCF7 breast = system: MCF7 breast

Structure (SMILES): C[Si](C)(C)c1ccc(-c2sc(-c3ccc([Si](C)(C)C)s3)c3c2C[Si]2(C3)Cc3c(-c4ccc([Si](C)(C)C)s4)sc(-c4ccc([Si](C)(C)C)s4)c3C2)s1
- TGI (SNB-78 CNS): > 100 µM
- TGI (RXF-631 renal): > 100 µM
- TGI (LXFL 529 NSCLC): > 100 µM

Structure (SMILES): CCc1cccc(C)c1NC(=O)C(=O)Cc1nc2ccccc2s1
- TGI (SNB-78 CNS): > 100 µM
- TGI (RXF-631 renal): > 100 µM
- TGI (LXFL 529 NSCLC): > 100 µM
- TGI (DMS 114 small cell lung): > 100 µM

Structure (SMILES): Cc1cc(Cl)ccc1NC(=O)CC/C(CC(=O)C(C)C)=N\NC(=O)C[n+]1ccccc1
- TGI (SNB-78 CNS): > 100 µM
- TGI (RXF-631 renal): > 100 µM
- TGI (LXFL 529 NSCLC): > 100 µM
- TGI (DMS 114 small cell lung): > 100 µM

Structure (SMILES): COC(=O)CCC(NC(=S)N/N=C/c1ccco1)C(=O)OC (stereo not drawn)
- TGI (SNB-78 CNS): > 100 µM
- TGI (RXF-631 renal): > 100 µM
- TGI (LXFL 529 NSCLC): > 100 µM
- TGI (DMS 114 small cell lung): > 100 µM

Structure (SMILES): COc1c2c(nc3ccccc13)-c1cc3c(c(=O)n1C2)COC(=O)C3(O)CC(=O)N1CCOCC1 (stereo not drawn)
- TGI (SNB-78 CNS): > 97.1 µM
- TGI (MDA-N): > 100 µM
- TGI (NCI/ADR-RES ovarian): > 48.8 µM
- TGI (MCF7 breast): > 44.4 µM
- TGI (LXFL 529 NSCLC): > 100 µM
- TGI (DMS 114 small cell lung): 24.2 µM

Structure (SMILES): CCOC(=O)NC(=O)c1cn(CCN2CCN(c3ncnc4nc[nH]c34)CC2)c(=O)[nH]c1=O
- TGI (RXF-631 renal): > 100 µM
- TGI (LXFL 529 NSCLC): > 100 µM
- TGI (DMS 114 small cell lung): > 100 µM

Structure (SMILES): COc1ccc(C(=O)C(c2ccc(OC)cc2)C2(O)C(=O)Nc3c2ccc(Cl)c3C)cc1 (stereo not drawn)
- TGI (SNB-78 CNS): > 100 µM
- TGI (RXF-631 renal): > 100 µM
- TGI (LXFL 529 NSCLC): > 100 µM
- TGI (DMS 114 small cell lung): > 100 µM

Structure (SMILES): COc1ccc(C(C#N)Cc2cc(OC)c(OC)c(OC)c2)cc1 (stereo not drawn)
- TGI (SNB-78 CNS): > 100 µM
- TGI (RXF-631 renal): > 100 µM
- TGI (LXFL 529 NSCLC): > 100 µM
- TGI (DMS 114 small cell lung): 63.4 µM

Structure (SMILES): C[C@]12CCC3[C@@H](CC[C@@H]4c5nonc5CC[C@]34C)C1C/C(=N/O)C2=O (stereo partly drawn)
- TGI (SNB-78 CNS): > 100 µM
- TGI (RXF-631 renal): > 100 µM
- TGI (LXFL 529 NSCLC): > 100 µM
- TGI (DMS 114 small cell lung): > 100 µM

Structure (SMILES): Cc1[nH]c2ccccc2c1C1Cc2ccccc2N1C(=O)/C=C/C(=O)O (stereo not drawn)
- TGI (SNB-78 CNS): > 100 µM
- TGI (RXF-631 renal): 41.3 µM
- TGI (LXFL 529 NSCLC): > 100 µM
- TGI (DMS 114 small cell lung): > 100 µM

Structure (SMILES): C/C(CC(=O)Nc1ccc(Cl)cc1)=N\NC(N)=S
- TGI (SNB-78 CNS): > 100 µM
- TGI (RXF-631 renal): > 100 µM
- TGI (LXFL 529 NSCLC): > 100 µM
- TGI (DMS 114 small cell lung): > 100 µM

Structure (SMILES): COc1ccc(/C=C\c2cc(OC)c(OC)c(OC)c2)cc1OC
- TGI (SNB-78 CNS): 40.4 µM
- TGI (NCI/ADR-RES ovarian): > 100 µM
- TGI (RXF-631 renal): 40.4 µM
- TGI (MCF7 breast): > 100 µM
- TGI (LXFL 529 NSCLC): 3.14 µM

Structure (SMILES): COC(=O)c1cc(Cl)ccc1NC(=O)c1ccc([N+](=O)[O-])cc1
- TGI (SNB-78 CNS): > 100 µM
- TGI (RXF-631 renal): 36.5 µM
- TGI (LXFL 529 NSCLC): > 100 µM
- TGI (DMS 114 small cell lung): > 100 µM

Structure (SMILES): CN1c2ccccc2N(C)C23N(C)c4ccccc4N(C)C12N(C)c1ccccc1N3C (stereo not drawn)
- TGI (RXF-631 renal): > 100 µM
- TGI (DMS 114 small cell lung): > 100 µM

Structure (SMILES): O=c1c2ccccc2nc(-c2ccccc2)n1NC1OC(CO)C(O)C(O)C1O (stereo not drawn)
- TGI (SNB-78 CNS): > 100 µM
- TGI (RXF-631 renal): > 100 µM
- TGI (LXFL 529 NSCLC): > 100 µM
- TGI (DMS 114 small cell lung): > 100 µM

Structure (SMILES): COc1c(Cl)cc(NC(=S)C#N)cc1Cl
- TGI (SNB-78 CNS): 85.9 µM
- TGI (MDA-N): 69.1 µM
- TGI (NCI/ADR-RES ovarian): 54.4 µM
- TGI (RXF-631 renal): 51.3 µM
- TGI (MCF7 breast): 92.9 µM
- TGI (LXFL 529 NSCLC): 85.8 µM
- TGI (DMS 114 small cell lung): 36.3 µM

Structure (SMILES): Cc1ccc(Nc2nc(C)c(C(/C=C/c3ccc(/C=C/C(=N/NC(=O)C[n+]4ccccc4)c4sc(Nc5ccc(C)cc5[N+](=O)[O-])nc4C)cc3)=N\NC(=O)C[n+]3ccccc3)s2)c([N+](=O)[O-])c1
- TGI (SNB-78 CNS): > 100 µM
- TGI (RXF-631 renal): > 100 µM
- TGI (LXFL 529 NSCLC): > 100 µM
- TGI (DMS 114 small cell lung): > 100 µM

Structure (SMILES): CC1=C2C(=CC(C)(C)C2O)C(=O)C(C)(O)C12CC2 (stereo not drawn)
- TGI (SNB-78 CNS): 0.226 µM
- TGI (LXFL 529 NSCLC): 0.114 µM
- TGI (DMS 114 small cell lung): 0.0281 µM

Structure (SMILES): Cc1cccc(C(C)C)c1NC(=O)CC1C(=O)Nc2ccccc2S1(=O)=O (stereo not drawn)
- TGI (SNB-78 CNS): > 79.3 µM
- TGI (RXF-631 renal): > 52.6 µM
- TGI (LXFL 529 NSCLC): 35.5 µM
- TGI (DMS 114 small cell lung): 45.5 µM

Structure (SMILES): COc1ccc2ccccc2c1C1OC(=O)c2ccccc21 (stereo not drawn)
- TGI (SNB-78 CNS): > 100 µM
- TGI (RXF-631 renal): > 100 µM
- TGI (DMS 114 small cell lung): > 100 µM

Structure (SMILES): CCOC(=O)C(=Cc1cccnc1C)C(=O)OCC
- TGI (RXF-631 renal): 39.7 µM
- TGI (LXFL 529 NSCLC): 20.2 µM
- TGI (DMS 114 small cell lung): 31.3 µM

Structure (SMILES): Cc1ccccc1NC(=O)C(=O)CC(=O)c1c(C)n([O-])c2ccccc2[n+]1=O
- TGI (SNB-78 CNS): > 100 µM
- TGI (LXFL 529 NSCLC): > 100 µM
- TGI (DMS 114 small cell lung): > 100 µM

Structure (SMILES): COc1ccc(OC)c(NC(=O)CCC/C(CC(=O)c2ccc(O)c(OC)c2)=N\Nc2ccc([N+](=O)[O-])cc2)c1
- TGI (SNB-78 CNS): > 100 µM
- TGI (RXF-631 renal): > 100 µM
- TGI (LXFL 529 NSCLC): > 100 µM
- TGI (DMS 114 small cell lung): > 100 µM

Structure (SMILES): COc1ccc(/C=N/N=C(\N)NO)c(OC)c1
- TGI (SNB-78 CNS): > 100 µM
- TGI (LXFL 529 NSCLC): 86.3 µM
- TGI (DMS 114 small cell lung): > 100 µM
